SMILES strings stand for the structures.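 Protocol summary: plate cells (96-well), add compound at 5 concentrations, incubate 48 h, interpolate endpoints linearly. GI50 is the concentration that inhibits growth by half. TGI is the concentration that stops growth completely.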

Some test systems named below: NCI-H522 lung; SF-295 CNS; MOLT-4 leukemia; EKVX NSCLC; DU-145 prostate; A549 NSCLC; HCT-116 colon; OVCAR-3 ovarian; HCT-15 colon; CAKI-1 renal.
Common to all, as to experiment: NCI tumour cell line growth inhibition, 48 h

In the case of `O=C(Nc1ccccc1)OC1OC(COC(=O)c2ccccc2)C(OC(=O)c2ccccc2)C1OS(=O)(=O)c1ccc([N+](=O)[O-])cc1` (stereo unspecified), the TGI with NCI-H522 lung, with SF-295 CNS, with MOLT-4 leukemia, with EKVX NSCLC, with DU-145 prostate and in the test with A549 NSCLC was > 100 µM throughout. Moreover, the TGI in the test on HCT-116 colon, with OVCAR-3 ovarian, with HCT-15 colon and in the test with CAKI-1 renal was > 100 µM throughout.

Turning to `C#CC1(O)C(COP(=O)(O)OCC2OC(n3cc(F)c(=O)[nH]c3=O)CC2O)OC(n2ccc(N)nc2=O)C1O` (stereo unspecified), the GI50 in the test with NCI-H522 lung is < 0.01 µM; in the test on SF-295 CNS it was < 0.01 µM; in the test on MOLT-4 leukemia, < 0.01 µM; with EKVX NSCLC, 0.529 µM; in the test with DU-145 prostate it was < 0.01 µM; in the test with A549 NSCLC it was < 0.01 µM. Further, the GI50 was < 0.01 µM with HCT-116 colon, < 0.01 µM with OVCAR-3 ovarian, < 0.0166 µM with HCT-15 colon and < 0.01 µM in the test on CAKI-1 renal. Besides, the TGI in the test on NCI-H522 lung is > 100 µM; in the test on SF-295 CNS it was 4.26 µM; in the test on MOLT-4 leukemia, 0.0124 µM; in the test with EKVX NSCLC it was > 29.8 µM; in the test on DU-145 prostate, > 100 µM; with A549 NSCLC, > 100 µM. Besides, the TGI in the test with HCT-116 colon was > 100 µM; with OVCAR-3 ovarian it was 0.746 µM; in the test with HCT-15 colon, > 100 µM.

`O=C(c1ccc([N+](=O)[O-])cc1)C(Br)C(Br)c1ccnc2ccccc12` (stereo unspecified): the TGI stood at 6.32 µM in the test with NCI-H522 lung; 21.1 µM in the test on SF-295 CNS; 14.7 µM in the test on MOLT-4 leukemia; 34.3 µM in the test with EKVX NSCLC; 24.4 µM in the test with DU-145 prostate; 30.5 µM in the test on A549 NSCLC. Further, the TGI turned out to be 4.04 µM in the test on HCT-116 colon, 23.1 µM in the test with OVCAR-3 ovarian, 27.3 µM with HCT-15 colon and 24.6 µM with CAKI-1 renal.

In the case of `COc1ccc(C(=O)c2cc3c(N)c(C(=O)Nc4cccc(Br)c4C)sc3nc2C)cc1`, the GI50 in the test on NCI-H522 lung was 0.0418 µM; with SF-295 CNS it was 0.0405 µM; in the test on MOLT-4 leukemia, 0.109 µM; in the test with EKVX NSCLC, 0.0954 µM; with DU-145 prostate, 0.194 µM; in the test on A549 NSCLC it was 0.132 µM. In addition, the GI50 with HCT-116 colon is 0.038 µM; with OVCAR-3 ovarian it was 0.0394 µM; in the test with HCT-15 colon it was 0.0489 µM; in the test on CAKI-1 renal it was 0.0562 µM. Moreover, the TGI is > 100 µM in the test with NCI-H522 lung; > 100 µM with MOLT-4 leukemia; > 100 µM in the test with EKVX NSCLC; > 100 µM in the test with A549 NSCLC; 1.05 µM in the test on OVCAR-3 ovarian; > 100 µM with HCT-15 colon. For the same compound, the TGI in the test with CAKI-1 renal is > 100 µM.

With `O=C1Cc2cc(CCn3cncn3)c(Cl)cc2N1`, the GI50 in the test on NCI-H522 lung is 5.29 µM; with SF-295 CNS, 37.1 µM; in the test with MOLT-4 leukemia, > 100 µM; in the test on EKVX NSCLC, 0.825 µM; with DU-145 prostate it was > 100 µM; in the test with A549 NSCLC, 16.5 µM. The GI50 with HCT-116 colon is 32 µM; in the test with OVCAR-3 ovarian, > 100 µM; with HCT-15 colon, 9.59 µM; with CAKI-1 renal, 8.33 µM. The TGI in the test with NCI-H522 lung, in the test with SF-295 CNS, with MOLT-4 leukemia, with EKVX NSCLC, in the test on DU-145 prostate and with A549 NSCLC was > 100 µM each time. In addition, the TGI in the test on HCT-116 colon, in the test with OVCAR-3 ovarian, in the test with HCT-15 colon and with CAKI-1 renal was > 100 µM in each case.

For `COc1cc2c3c(n(CCCNCCCNCCN)c(=O)c2cc1OC)-c1cc2c(cc1C3=O)OCO2`, the GI50 was 15.3 µM in the test on NCI-H522 lung; > 100 µM in the test with SF-295 CNS; 10.9 µM in the test on MOLT-4 leukemia; > 100 µM with EKVX NSCLC; 51.9 µM in the test on DU-145 prostate; > 100 µM in the test on A549 NSCLC. Besides, the GI50 in the test with HCT-116 colon is 23 µM; in the test with OVCAR-3 ovarian, 19.5 µM; in the test on HCT-15 colon, > 100 µM; with CAKI-1 renal, 87.8 µM. For the same compound, the TGI was 85.1 µM in the test with NCI-H522 lung; > 100 µM in the test with SF-295 CNS; > 100 µM in the test on MOLT-4 leukemia; > 100 µM in the test with EKVX NSCLC; > 100 µM with DU-145 prostate; > 100 µM in the test on A549 NSCLC. Besides, the TGI is 57.9 µM in the test with HCT-116 colon, 53.5 µM in the test on OVCAR-3 ovarian, > 100 µM in the test with HCT-15 colon and > 100 µM in the test on CAKI-1 renal.

Regarding `Cc1ccc(Cl)c(NS(=O)(=O)c2ccc(-c3cnc(C4CC4)o3)cc2)c1`, the GI50 is 0.0566 µM in the test with NCI-H522 lung; 0.0377 µM with SF-295 CNS; 0.166 µM in the test with MOLT-4 leukemia; 0.314 µM with EKVX NSCLC; 0.288 µM in the test on DU-145 prostate; 0.146 µM in the test on A549 NSCLC. For the same compound, the GI50 in the test with HCT-116 colon is 0.0537 µM; in the test with OVCAR-3 ovarian it was 0.0674 µM; in the test on HCT-15 colon it was 0.055 µM; with CAKI-1 renal, 0.0531 µM. For the same compound, the TGI in the test with NCI-H522 lung was 20.3 µM; with SF-295 CNS, 0.182 µM; with MOLT-4 leukemia, > 48.3 µM; with EKVX NSCLC, > 100 µM; in the test on DU-145 prostate, > 100 µM; in the test with A549 NSCLC, > 100 µM. Also, the TGI was > 36.8 µM in the test on HCT-116 colon, 4.17 µM in the test on OVCAR-3 ovarian, 18.2 µM in the test with HCT-15 colon and 10.1 µM in the test with CAKI-1 renal.

For the compound `CS(=O)(=O)c1cccc(Nc2ncc3cc(-c4ccccc4Cl)ccc3n2)c1`, the GI50 in the test with NCI-H522 lung was 0.773 µM; in the test with SF-295 CNS, 1.6 µM; in the test with MOLT-4 leukemia it was 1.42 µM; with EKVX NSCLC it was 1.37 µM; in the test with DU-145 prostate, 1.42 µM; in the test on A549 NSCLC, 1.78 µM. The GI50 is 1.01 µM with HCT-116 colon, 1.52 µM in the test on OVCAR-3 ovarian, 0.821 µM in the test with HCT-15 colon and 0.859 µM in the test on CAKI-1 renal. Moreover, the TGI is 2.78 µM in the test with NCI-H522 lung; > 33.3 µM with SF-295 CNS; 14.6 µM with MOLT-4 leukemia; > 33.3 µM in the test with EKVX NSCLC; > 33.3 µM in the test with DU-145 prostate; > 33.3 µM with A549 NSCLC. Also, the TGI in the test with HCT-116 colon was 4.51 µM; with OVCAR-3 ovarian, > 33.3 µM; with HCT-15 colon, > 33.3 µM; in the test on CAKI-1 renal, 9.57 µM.
